Laboratory results from PMC9405135, “Tuning the Biological Activity of Camphorimine Complexes through Metal Selection” (Antibiotics, 2022).
Where two headings read alike, the source gives them in different places.

Tests used:
[1] = system: OVCAR3 cells; assay: MTT cytotoxicity, OVCAR3 ovarian cancer cells; settings: for IC50: read-out: IC50 OVCAR3; for SI = selectivity index = IC50(HDF)/IC50(OVCAR3): HDF versus OVCAR3, 24 h
[2] = Reduction potential by cyclic voltammetry; assay type: physicochemical; set-up: E1/2red (reduction potential, footnote d): reference not given here; settings: Bu4NBF4/CH3CN electrolyte, ±10 mV; for Epred (reduction potential): versus SCE; for E1/2red (reduction potential, footnote d): half-wave potential, footnote d prints [28]
[3] = system: ΦX174 supercoiled DNA; set-up: method as in PMID 31671298; settings: previously shown; cited from earlier work
[4] = system: A2780 cells; assay: MTT cytotoxicity, A2780 ovarian cancer cells; settings: read-out: IC50 A2780, 24 h incubation
[5] = system: V79 fibroblasts; assay: MTT cytotoxicity, V79 normal fibroblasts; settings: read-out: IC50 V79, 24 h incubation
[6] = system: HDF fibroblasts; assay: MTT cytotoxicity, HDF normal fibroblasts; settings: read-out: IC50 HDF, 24 h incubation
[7] = system: OVCAR3 cells; assay: Lipid peroxidation (MDA, TBARS) assay; assay type: cell-based, human; settings: OVCAR3 cells treated 6 h; 1 at 100 μM, 5 at 50 μM, 9 at 20 μM; mean ± SD
Method: Measurement of MDA relies on the detection of thiobarbituric acid (TBA)-reactive compounds generated from the decomposition of lipid peroxidation products. This reaction, which takes place under acidic conditions at 95 °C, results in the formation of an MDA–TBA adduct that can be quantified by its absorbance at 532 nm. […] Additionally, the MDA levels induced by the complexes correlated with the levels of ROS, pointing the involvement of ROS production in the mechanism of action of complexes under study and, consequently, the peroxidation of the membrane lipids, as supported by the correlation between the production of ROS and the levels of lipid peroxides, particularly for complexes 5 and 9.
The malondialdehyde (MDA) content in lipid extracts of OVCAR3 cells was measured using a colorimetric kit (BioVision, Milpitas, CA, USA), a method that relies on the reaction with thiobarbituric acid (TBARS assay). Briefly, OVCAR3 cells (5 × 10^5 cells/2 mL medium) were seeded in six-well plates and left to adhere for 24 h. […] The resulting cell pellet was treated following the kit recommended protocol. […] Then, 200 μL aliquots were then taken and transferred to a 96-well plate for MDA quantification at 532 nm. […]

[8] = system: OVCAR3 cells; assay: Intracellular ROS detection by H2DCF-DA; assay type: cell-based, human; settings: 1-4 at 10-100 µM, 5-9 at 0.1-50 µM, 1 h
Method: The molecular probe dichlorodihydrofluorescein diacetate (H2DCF-DA) was used to assess the levels of ROS, e.g., hydrogen peroxide, hydroxyl radicals, and peroxynitrite, generated in response to the effect of the complexes. This compound suffers oxidation and produces a fluorescent compound (DCF) in the presence of ROS [31]. The induction of intracellular ROS by the compounds (metal precursors and copper, silver, and gold complexes) was analyzed at λexc. = 492 nm 517 nm emission using a Varioskan LUX scanning multimode reader (Thermo Fisher Scientific).
Intracellular ROS levels, mainly H2O2, were measured using dihydro-2′7′dichlorofluorescein diacetate (H2DCF-DA). This cell-permeable molecular probe is de-esterified within the cell and turns to highly fluorescent 2′,7′-dichlorofluorescin (DCF) upon oxidation with ROS. For the assays, OVCAR3 cells (2 × 10^4 cells /well) were seeded in 96-well plates and left to adhere overnight. The medium was then replaced with a solution of 10 μM H2DCF-DA in colorless DMEM (FluoroBrite™ DMEM, Gibco®, Waltham, MA, USA) and cells were incubated at 37 °C for 30 min. […] DCF fluorescence was measured using a Varioskan Lux multimode microplate reader (ThermoFisher Scientific, Waltham, MA, USA) at 492 nm excitation and 517 nm emission. Results of fluorescence were expressed as the fold change in fluorescence levels compared with controls.

[9] = system: caspase-3/7 in OVCAR3 cells; assay: Caspase-3/7 activation (Caspase-Glo 3/7 assay); assay type: cell-based, human; settings: OVCAR3, 24 h, concentrations below IC50
Method: Caspases are a family of cysteine proteases playing central roles in the regulation of cellular processes such as programmed cell death. Among them, caspase-3 and -7 are considered executioners of the apoptosis pathways. We investigated the possible activation of apoptotic events in OVCAR3 cells treated by camphorimine complexes 1, 5, and 9.
The activities of caspase-3 and -7 were assessed using the Caspase-Glo® 3/7 assay (Promega, Madison, WI, USA). The assay kit provides a proluminescent caspase-3/7 substrate (DEVD-aminoluciferin) and luciferase in a reagent optimized for caspase-3/7 activity, luciferase activity, and cell lysis. In the presence of caspase 3/7, this substrate is cleaved, and aminoluciferin is released and consumed by luciferase, which generates a luminescent signal proportional to the caspase activity present in the cells. The assay was carried out in a 96-well plate format with the OVCAR3 cells treated with complexes 1, 5, and 9 for 24 h at concentrations below their IC50 according to a previously described method. […] Results (mean ± SD) were expressed as relative luminescent units (RLU).

[10] = system: OVCAR3 cells; assay: Metal distribution in single cells by nuclear microscopy (PIXE); assay type: cell-based, human; settings: 1 at 45 μM 24 h, 9 at 30 μM 3 h
Method: The distribution of copper and gold in treated cells was inspected by nuclear microscopy, making use of the PIXE technique to map and assess elemental contents in single cells. The nuclear microscopy techniques offer several advantages, regarding relatively high spatial resolution and sensitivity for a wide range of elements with physiological roles and those with pharmaceutical interest, in whole cells, while preserving most of their in vivo conditions.
OVCAR3 cells (ca. 1 × 10^6) were prepared for nuclear microscopy experiments by seeding the cells on a 100 nm thick silicon nitride membrane (Silson Ltd., Southam, UK), contained in six-well plates, and incubated overnight as described previously. Cells were incubated with complexes 1 and 9 at concentrations corresponding to the IC50 (45 μM for 24 h and 30 μM for 3 h, respectively). After incubation, the cells were analyzed at the nuclear microscopy facility of the C2TN/IST with a 2.0 MeV proton beam focused down to 3 × 4 µm^2 dimensions. Images of the micro-distributions of Cu and Au in OVCAR3 cells, as well as minor and trace physiological elements (e.g., P, S, K, and Fe), were obtained using the PIXE multielemental technique. Images of whole OVCAR3 cells were taken with 30 × 30 µm^2 scan sizes. Acquisition of data imaging and spectral analysis was performed using OMDAQ 2007 (Oxford Microbeams Ltd., Oxford, UK).

[11] = system: ΦX174 supercoiled DNA; assay: Complex-DNA interaction, agarose gel electrophoretic mobility; assay type: binding; settings: 0.5-15 µM complex, 24 h at 37 °C
Method: Therefore, we focused our studies mostly on the silver (5 and 7) and gold complexes (8 and 9) having the monocamphor ligands ^1A and ^2A, respectively. Complex 1 was also included for comparison. We evaluated the complexes’ ability to interact with DNA, by visualizing in vitro conformational changes in ΦX174 supercoiled DNA using agarose gel electrophoresis assays.
The DNA binding activity of the metal complexes was assessed through their ability to alter the electrophoretic mobilities of the covalently closed circular (ccc) and open circular (oc) forms of ΦX174 supercoiled DNA as previously described. Briefly, a mixture containing 200 ng of ϕX174 DNA (Promega, Madison, WI, USA) and different concentrations of the metal complexes was prepared. After incubation for 24 h at 37 °C in the dark, the samples were run in a 0.8% agarose gel in TAE buffer for 3 h at 90 V. The gel obtained was then stained using a 3× GelRed® (Biotium, Fremont, CA, USA) solution in H2O and imaged in an AlphaImagerEP (Alpha Innotech, San Leandro, CA, USA).

[12] = Complex stability in cellular medium by UV/Vis spectroscopy; assay type: physicochemical; settings: DMSO, DMEM with 1% DMSO, DMEM with 1% DMSO + 10% FBS; 48 h
Method: The stability in cellular medium of the complexes was evaluated for 48 h, using UV/Vis spectroscopy. The absorption spectrum was recorded for each complex dissolved in (a) 100% DMSO, (b) colorless DMEM with 1% DMSO, and (c) colorless DMEM with 1% DMSO + 10% FBS [30]. […] As low concentrations were used in the biological studies, we expect that both the stability and the solubility were not impaired.

[13] = system: OVCAR3 cells; assay: Superoxide generation (NBT assay); assay type: cell-based, human; settings: 1 at 50 and 100 µM, 5 at 20 and 50 µM, 9 at 10 and 20 µM
Method: The ROS species superoxide (O2^•−) can be detected with NBT, a cell-permeant dye that can cross the cell membrane and be reduced by intracellular free radicals (superoxide anions) to form formazan particles, which can be detected as blue precipitates in the cells.
The nitro blue tetrazolium (NBT) assay was carried out adapting a previously described method. This assay was used to determine the ability of cells to produce superoxide anion upon treatment with the compounds. During the treatment, NBT is reduced by superoxide anion, resulting in dark-blue formazan particles. […] Then, the medium was discarded, and the blue formazan particles were dissolved in 200 μL of 90% DMSO (90% DMSO:10% NaOH 0.1 N with 0.1% SDS). The resulting NBT formazan was measured at 560 nm using a plate spectrophotometer.

| Compound | Epred (reduction potential) [2] | E1/2red (reduction potential, footnote d) [2] | IC50 ([1]; MTT, 24 h incubation) | IC50 [4] | IC50 [5] | SI = selectivity index = IC50(HDF)/IC50(OVCAR3) [1] | IC50 [6] | other results |
| --- | --- | --- | --- | --- | --- | --- | --- | --- |
| CC(=O)[O-].[Ag+] [Ag(CH3COO), silver acetate, reference compound] | −0.043 Volt |  | 3.38 ± 2 µM |  |  |  |  |  |
| O=[N+]([O-])[O-].[Ag+] [Ag(NO3), silver nitrate, reference compound] | 0.18 Volt |  |  |  |  |  |  | IC50 [1]: 2.66 ± 1 µM |
| [Cl][Cu][Cl] [CuCl2, reference compound] |  | 0.58 ^d Volt | > 100 µM |  |  |  |  |  |
| N.N.[Cl][Pt][Cl] [cisplatin, reference compound] |  |  | 13 ± 4.7 µM | 21 ± 5 µM |  |  |  | interaction with DNA (change of electrophoretic mobility) [3]: bind to DNA and induce extensive electrophoretic mobility changes in DNA |
| [CuCl2((OC10H14N)2C6H4-p)] [Complex 2] |  | 0.48 ^d Volt | 37.6 ± 8.5 µM | 49.5 ± 14 µM | > 100 µM | >3 | > 100 µM |  |
| [CuCl2(OC10H14NC6H5)]·HCl·½H2O [Complex 4] |  | 0.47 ^d Volt | 115 ± 25 µM | > 100 µM | > 100 µM | >1 | > 100 µM |  |

Further lines, with some results ahead:

| Epred (reduction potential) [2] | E1/2red (reduction potential, footnote d) [2] | Compound | IC50 ([1]; MTT, 24 h incubation) | IC50 [4] | IC50 [5] | SI = selectivity index = IC50(HDF)/IC50(OVCAR3) [1] | IC50 [6] | other results |
| --- | --- | --- | --- | --- | --- | --- | --- | --- |
| −0.46 Volt |  | [Cl][Cu] [CuCl, reference compound] | > 100 µM |  |  |  |  |  |
| −0.49 Volt |  | [{CuCl}2{OC10H14N(C6H4NH2)}] [Complex 1] | 72.4 ± 9.1 µM | 45.6 ± 11 µM | 34.5 ± 9.7 µM | 1.6 | 116 ± 27 µM | MDA (lipid peroxide content) [7]: 290 ± 15 pmoles/10^6 Cells; production of ROS (H2DCF-DA, relative to untreated cells) [8]: followed a similar trend; caspase-3/7 activation [9]: low caspase activation; cellular distribution of the metal [10]: uncharacteristic map of copper distribution; interaction with DNA (change of electrophoretic mobility) [11]: none of them interacted significantly with DNA; stability in cellular medium (UV/Vis spectra) [12]: slightly lower; superoxide ROS levels (NBT reduction) [13]: increased the ROS levels in a dose-dependent manner |
|  | −0.46 ^d Volt | [{CuCl}3{(OC10H14N)2,μ-C6H4-p)}] [Complex 3] | 37.5 ± 7.7 µM | 43.1 ± 9.1 µM | 44.9 ± 10 µM | 1.3 | 48.3 ± 27 µM |  |
